{"source": "paper PMC9298182", "about": "“De novo design of type II topoisomerase inhibitors as potential antimicrobial agents targeting a novel binding region” (RSC Medicinal Chemistry, 2022)", "key": {"E. coli topoisomerase IV [1]": {"biological_target": "T1, E. coli topoisomerase IV (Escherichia coli, UniProt P0AFI2+P20083)", "set-up": "method as in PMID 28507124", "settings": "read-out: E. coli topo IV IC50; cited from earlier work"}, "E. coli": {"test_system": "E. coli", "set-up": "method as in PMID 28507124", "settings": "different E. coli strain, printed in column E. coli K12 MG1655; cited from earlier work"}, "S. aureus": {"test_system": "S. aureus", "settings": "different S. aureus strain, printed in column S. aureus NCIMB 50080; cited from earlier work"}, "E. coli DNA gyrase": {"biological_target": "E. coli DNA gyrase (Escherichia coli, UniProt P0AES4+P0AES6)", "assay": "E. coli DNA gyrase supercoiling inhibition assay (gel-based)", "format": "biochemical", "settings": "for IC50: supercoiling assay, mean of 2 or 3 experiments, semi-quantitative"}, "E. coli topoisomerase IV [2]": {"biological_target": "T1, E. coli topoisomerase IV", "assay": "biochemical", "format": "biochemical"}, "E. coli K12 MG1655": {"test_system": "E. coli K12 MG1655", "assay": "MIC, broth microdilution", "format": "cell-based", "settings": "Escherichia coli, MG1655, read-out: E. coli K12 MG1655 MIC"}, "S. aureus NCIMB 50080": {"test_system": "S. aureus NCIMB 50080", "assay": "MIC, broth microdilution", "format": "cell-based"}, "E. coli K12 MG1655 S83L": {"test_system": "E. coli K12 MG1655 S83L", "assay": "MIC, broth microdilution, fluoroquinolone mutant strain", "format": "cell-based", "settings": "Escherichia coli, MG1655, read-out: E. coli K12 MG1655 S83L MIC"}, "[3]": {"settings": "Staphylococcus aureus, NCIMB50080; read-out: S. aureus NCIMB 50080 MIC"}}, "note": "Like-named read-outs stand apart in the source and are kept apart here. Marks after values point to notes of the source that are not given here."}
{"compound": "Cl.NCC(NC(=O)c1cccc(-c2cccs2)c1)c1ccc(O)cc1", "note": "(stereo not drawn) [Compound 1]", "values": [{"measurement": "IC50", "setting": "E. coli topoisomerase IV [1]", "value": "> 540", "unit": "µM"}, {"measurement": "E. coli MIC", "setting": "E. coli", "value": "8 ^a μg mL^−1"}, {"measurement": "S. aureus MIC", "setting": "S. aureus", "value": "8 ^a μg mL^−1"}]}
{"compound": "NC[C@H](NC(=O)c1cccc(-c2ccccc2)c1)c1ccccc1", "note": "[Compound 2]", "values": [{"measurement": "IC50", "setting": "E. coli DNA gyrase", "value": 60, "unit": "µM"}]}
{"compound": "COc1ccccc1-c1cccc(C(=O)N[C@@H](CN)c2ccccc2)c1", "note": "[Compound 3]", "values": [{"measurement": "IC50", "setting": "E. coli DNA gyrase", "value": 20, "unit": "µM"}]}
{"compound": "CCOc1cccc(-c2cccc(C(=O)N[C@@H](CN)c3ccccc3)c2)c1", "note": "[Compound 4]", "values": [{"measurement": "IC50", "setting": "E. coli DNA gyrase", "value": 20, "unit": "µM"}]}
{"compound": "Cl.NC[C@H](NC(=O)c1cccc(-c2ccccc2C(F)(F)F)c1)c1ccccc1", "note": "[Compound 5]", "values": [{"measurement": "IC50", "setting": "E. coli DNA gyrase", "value": 21, "unit": "µM"}, {"measurement": "IC50", "setting": "E. coli topoisomerase IV [2]", "value": "> 100", "unit": "µM"}, {"measurement": "MIC", "setting": "E. coli K12 MG1655", "value": 32, "unit": "µg/mL"}, {"measurement": "MIC", "setting": "S. aureus NCIMB 50080; [3]", "value": 16, "unit": "µg/mL"}, {"measurement": "MIC", "setting": "E. coli K12 MG1655 S83L", "value": 32, "unit": "µg/mL"}]}
{"compound": "CCOc1cccc(-c2cccc(C(=O)N[C@@H](CN)c3ccccc3)c2)c1F.Cl", "note": "[Compound 6, N-[(1R)-2-amino-1-phenylethyl]-3'-ethoxy-2'-fluoro-[1,1'-biphenyl]-3-carboxamide hydrochloride]", "values": [{"measurement": "fold increase in binding affinity against gyrase vs. unsubstituted 2", "setting": "E. coli DNA gyrase; relative to compound 2", "value": 5, "unit": "fold"}, {"measurement": "IC50", "setting": "E. coli DNA gyrase", "value": 12, "unit": "µM"}, {"measurement": "IC50", "setting": "E. coli topoisomerase IV [2]", "value": "> 100", "unit": "µM"}, {"measurement": "MIC", "setting": "E. coli K12 MG1655", "value": 64, "unit": "µg/mL"}, {"measurement": "MIC", "setting": "S. aureus NCIMB 50080; [3]", "value": 32, "unit": "µg/mL"}, {"measurement": "MIC", "setting": "E. coli K12 MG1655 S83L", "value": 64, "unit": "µg/mL"}]}
{"compound": "CCOc1cc(-c2cccc(C(=O)N[C@@H](CN)c3ccccc3)c2)ccc1F.Cl", "note": "[Compound 7]", "values": [{"measurement": "IC50", "setting": "E. coli DNA gyrase", "value": 17, "unit": "µM"}, {"measurement": "IC50", "setting": "E. coli topoisomerase IV [2]", "value": 64, "unit": "µM"}, {"measurement": "fold more potent against gyrase than topo IV", "setting": "E. coli topoisomerase IV [2]; E. coli gyrase vs. E. coli topo IV", "value": "~4", "unit": "fold"}, {"measurement": "MIC", "setting": "E. coli K12 MG1655", "value": 32, "unit": "µg/mL"}, {"measurement": "MIC", "setting": "S. aureus NCIMB 50080; [3]", "value": 16, "unit": "µg/mL"}, {"measurement": "MIC", "setting": "E. coli K12 MG1655 S83L", "value": 32, "unit": "µg/mL"}, {"measurement": "melting point", "value": "219 to 221", "unit": "°C"}]}
{"compound": "NC[C@H](NC(=O)c1cccc(-c2cccc(O)c2)c1)c1ccccc1", "note": "[Compound 8]", "values": [{"measurement": "IC50", "setting": "E. coli DNA gyrase", "value": 46, "unit": "µM"}]}
{"compound": "Cl.NC[C@H](NC(=O)c1cccc(-c2ccccc2Cl)c1)c1ccccc1", "note": "[Compound 9]", "values": [{"measurement": "IC50", "setting": "E. coli DNA gyrase", "value": 35, "unit": "µM"}, {"measurement": "melting point", "value": "160.5 to 163", "unit": "°C"}]}
{"compound": "NC[C@H](NC(=O)c1cccc(-c2cccc(Cl)c2)c1)c1ccccc1", "note": "[Compound 10]", "values": [{"measurement": "IC50", "setting": "E. coli DNA gyrase", "value": 39, "unit": "µM"}]}
{"compound": "Cl.NC[C@H](NC(=O)c1cccc(-c2cccc([N+](=O)[O-])c2)c1)c1ccccc1", "note": "[Compound 11]", "values": [{"measurement": "IC50", "setting": "E. coli DNA gyrase", "value": 73, "unit": "µM"}, {"measurement": "IC50", "setting": "E. coli topoisomerase IV [2]", "value": 94, "unit": "µM"}, {"measurement": "MIC", "setting": "E. coli K12 MG1655", "value": "> 128", "unit": "µg/mL"}, {"measurement": "MIC", "setting": "S. aureus NCIMB 50080; Staphylococcus aureus, NCIMB50080, read-out: S. aureus NCIMB 50080 MIC", "value": "> 128", "unit": "µg/mL"}, {"measurement": "MIC", "setting": "E. coli K12 MG1655 S83L", "value": "> 128", "unit": "µg/mL"}]}
{"compound": "CC(=O)c1cccc(-c2cccc(C(=O)N[C@@H](CN)c3ccccc3)c2)c1.Cl", "note": "[Compound 12]", "values": [{"measurement": "IC50", "setting": "E. coli DNA gyrase", "value": 42, "unit": "µM"}, {"measurement": "melting point", "value": "~ 238 °C (dec.)"}]}
{"compound": "COC(=O)c1cccc(-c2cccc(C(=O)N[C@@H](CN)c3ccccc3)c2)c1.Cl", "note": "[Compound 13]", "values": [{"measurement": "IC50", "setting": "E. coli DNA gyrase", "value": 24, "unit": "µM"}, {"measurement": "melting point", "value": "212 to 215", "unit": "°C"}]}
{"compound": "COC(=O)c1ccccc1-c1cccc(C(=O)N[C@@H](CN)c2ccccc2)c1.Cl", "note": "[Compound 14]", "values": [{"measurement": "IC50", "setting": "E. coli DNA gyrase", "value": 41, "unit": "µM"}, {"measurement": "melting point", "value": "145 to 147", "unit": "°C"}]}
{"compound": "Cl.NC[C@H](NC(=O)c1cccc(Br)c1)c1ccccc1", "note": "[Compound 15]", "values": [{"measurement": "fold drop in gyrase activity compared to 2", "setting": "E. coli DNA gyrase; relative to compound 2", "value": "at least 3 fold"}, {"measurement": "IC50", "setting": "E. coli DNA gyrase", "value": "> 200", "unit": "µM"}]}
{"compound": "Cc1ccccc1C(=O)N[C@@H](CN)c1ccccc1", "note": "[Compound 21]", "values": [{"measurement": "IC50", "setting": "E. coli DNA gyrase", "value": "> 100", "unit": "µM"}]}
{"compound": "Cc1cccc(C(=O)N[C@@H](CN)c2ccccc2)c1", "note": "[Compound 22]", "values": [{"measurement": "IC50", "setting": "E. coli DNA gyrase", "value": "> 100", "unit": "µM"}]}
{"compound": "Cc1ccc(C(=O)N[C@@H](CN)c2ccccc2)cc1.Cl", "note": "[Compound 23]", "values": [{"measurement": "gyrase inhibition judged visually from gel", "setting": "E. coli DNA gyrase; at 100 µM, Fig. S2", "value": "some inhibition"}, {"measurement": "IC50", "setting": "E. coli DNA gyrase", "value": "> 100", "unit": "µM"}]}
{"compound": "COc1ccccc1-c1cc(C(=O)N[C@@H](CN)c2ccccc2)ccc1C", "note": "[Compound 24]", "values": [{"measurement": "IC50", "setting": "E. coli DNA gyrase", "value": 153, "unit": "µM"}]}
{"compound": "CCOc1cccc(-c2cc(C(=O)N[C@@H](CN)c3ccccc3)ccc2C)c1", "note": "[Compound 25]", "values": [{"measurement": "IC50", "setting": "E. coli DNA gyrase", "value": 63, "unit": "µM"}]}
{"compound": "CCOc1cc(C)cc(-c2cc(C(=O)N[C@@H](CN)c3ccccc3)ccc2C)c1", "note": "[Compound 26]", "values": [{"measurement": "IC50", "setting": "E. coli DNA gyrase", "value": 56, "unit": "µM"}]}
{"compound": "NC[C@H](NC(=O)c1cncc(-c2ccccc2Cl)c1)c1ccccc1", "note": "[Compound 27]", "values": [{"measurement": "IC50", "setting": "E. coli DNA gyrase", "value": 35, "unit": "µM"}]}
{"compound": "Cl.NC[C@@H](NC(=O)c1cccc(-c2ccccc2)c1)c1ccccc1", "note": "[Compound 28]", "values": [{"measurement": "IC50", "setting": "E. coli DNA gyrase", "value": 76, "unit": "µM"}, {"measurement": "melting point", "value": "205 to 207", "unit": "°C"}]}
{"compound": "COc1ccccc1-c1cccc(C(=O)N[C@H](CN)c2ccccc2)c1", "note": "[Compound 29]", "values": [{"measurement": "IC50", "setting": "E. coli DNA gyrase", "value": 36, "unit": "µM"}]}
{"compound": "CCOc1cccc(-c2cccc(C(=O)N[C@H](CN)c3ccccc3)c2)c1.Cl", "note": "[Compound 30]", "values": [{"measurement": "fold drop in gyrase activity of (S)-enantiomer vs. (R)-enantiomer", "setting": "E. coli DNA gyrase; 30 vs. 4", "value": 9, "unit": "fold"}, {"measurement": "IC50", "setting": "E. coli DNA gyrase", "value": 180, "unit": "µM"}]}
{"compound": "COc1ccccc1-c1cccc(C(=O)NC(CN)c2cccc(O)c2)c1.Cl", "note": "(stereo not drawn) [Compound 31]", "values": [{"measurement": "IC50", "setting": "E. coli DNA gyrase", "value": 41, "unit": "µM"}, {"measurement": "IC50", "setting": "E. coli topoisomerase IV [2]", "value": "> 100", "unit": "µM"}, {"measurement": "MIC", "setting": "E. coli K12 MG1655", "value": "> 128", "unit": "µg/mL"}, {"measurement": "MIC", "setting": "S. aureus NCIMB 50080; [3]", "value": 128, "unit": "µg/mL"}, {"measurement": "MIC", "setting": "E. coli K12 MG1655 S83L", "value": "> 128", "unit": "µg/mL"}]}
{"compound": "COc1ccccc1-c1cccc(C(=O)NC(CN)c2ccc(O)cc2)c1", "note": "(stereo not drawn) [Compound 32]", "values": [{"measurement": "IC50", "setting": "E. coli DNA gyrase", "value": 45, "unit": "µM"}]}
{"compound": "CCOc1cccc(-c2cccc(C(=O)NC(CN)c3cccc(O)c3)c2)c1", "note": "(stereo not drawn) [Compound 33]", "values": [{"measurement": "IC50", "setting": "E. coli DNA gyrase", "value": 41, "unit": "µM"}]}
{"compound": "CCOc1cccc(-c2cccc(C(=O)NC(CN)c3cccc(O)c3)c2)c1F", "note": "(stereo not drawn) [Compound 34]", "values": [{"measurement": "IC50", "setting": "E. coli DNA gyrase", "value": 62, "unit": "µM"}]}
{"compound": "CCOc1cccc(-c2cccc(C(=O)NC(CN)c3ccc(O)cc3)c2)c1F", "note": "(stereo not drawn) [Compound 35]", "values": [{"measurement": "IC50", "setting": "E. coli DNA gyrase", "value": "> 200", "unit": "µM"}]}
